Here are results for 57 test systems from the supplement of paper PMC11962398.

Compound in test [1]: T1, C[C@H]1CNCCN1c1nccc(-c2noc3c2CCC[C@@]32CCCc3sc(N)c(C#N)c32)n1 [BI-2493]
Particulars: 5 days. On the procedure: (§1)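 PRISM pooled barcoded cancer cell line viability screen (Broad Institute) with BI-2493 at 8 doses in threefold dilutions from 0.00457 to 10 µmol/L, 5-day treatment; curves fitted per cell line. IC50 is undefined (placeholder) for resistant lines. AUC is capped at 1, and sensitivity is reported as 1 − AUC.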

Compound in test [2]: T1, BI-2493
The test can be described thus: 1 - AUC of viability dose-response curve (sensitivity) (fraction); higher = more sensitive. Particulars: 5 days. On the procedure: as §1

On to MCC26_SKIN, for which the “IC50 of cell viability” value in the test with BI-2493 [1] is greater than 10 µM. Further, in the test with BI-2493 [2], the “1 - AUC of viability dose-response curve” value is 0.0203.
As to KYSE70_OESOPHAGUS, the “IC50 of cell viability” value in the test with BI-2493 [1] is 5.15 µM. For the same test system, the “1 - AUC of viability dose-response curve” value in the test with BI-2493 [2] was 0.163.
Taken in the same sequence, the figures for HEP3B217_LIVER were 6.95 µM and 0.0726.
The corresponding values for COV362_OVARY are greater than 10 µM and 0.00606.
For NCO2_HAEMATOPOIETIC_AND_LYMPHOID_TISSUE, in the test with BI-2493 [1], the “IC50 of cell viability” value was determined as 4.33 µM. For the same test system, in the test with BI-2493 [2], the “1 - AUC of viability dose-response curve” value was found to be 0.117.
The corresponding values for EFM19_BREAST are 8.2 µM and 0.0426.
Consider MELHO_SKIN, for which the “IC50 of cell viability” value in the test with BI-2493 [1] worked out at 7.85 µM. Also, the “1 - AUC of viability dose-response curve” value with BI-2493 [2] worked out at 0.131.
The corresponding values for PMFKO14_LARGE_INTESTINE are 7.87 µM and 0.106.
For the test system AM38_CENTRAL_NERVOUS_SYSTEM, the “IC50 of cell viability” value with BI-2493 [1] is 4.3 µM. Further, the “1 - AUC of viability dose-response curve” value with BI-2493 [2] came to 0.101.
Take SW1088_CENTRAL_NERVOUS_SYSTEM: the “IC50 of cell viability” value with BI-2493 [1] was 8.8 µM. In addition, the “1 - AUC of viability dose-response curve” value in the test with BI-2493 [2] was found to be 0.159.
Taken in the same sequence, the figures for SNU1077_ENDOMETRIUM were 8.81 µM and 0.0934.
Taken in the same sequence, the figures for NCIH358_LUNG were 2.33 µM and 0.281.
The corresponding values for CAL33_UPPER_AERODIGESTIVE_TRACT are 6.54 µM and 0.142.
DMS273_LUNG: in the test with BI-2493 [1], the “IC50 of cell viability” value is 2.81 µM. Further, the “1 - AUC of viability dose-response curve” value with BI-2493 [2] stood at 0.265.
Taken in the same sequence, the figures for NP5_CENTRAL_NERVOUS_SYSTEM were 3.54 µM and 0.108.
Taken in the same sequence, the figures for SKPNDW_BONE were 9.05 µM and 0.0174.
Taken in the same sequence, the figures for “OCILY19_HAEMATOPOIETIC_AND_LYMPHOID_TISSUE” were 3.56 µM and 0.19.
Turning to ASPC1_PANCREAS, the “IC50 of cell viability” value with BI-2493 [1] was found to be 2.11 µM. Besides, the “1 - AUC of viability dose-response curve” value with BI-2493 [2] stood at 0.32.
Consider TOV21G_OVARY, for which, in the test with BI-2493 [1], the “IC50 of cell viability” value was 5.42 µM. In addition, in the test with BI-2493 [2], the “1 - AUC of viability dose-response curve” value turned out to be 0.114.
The corresponding values for CAL54_KIDNEY are greater than 10 µM and 0.00233.
MDAMB231_BREAST: in the test with BI-2493 [1], the “IC50 of cell viability” value worked out at 7.4 µM. Besides, the “1 - AUC of viability dose-response curve” value in the test with BI-2493 [2] worked out at 0.0666.
The corresponding values for BT16_SOFT_TISSUE are greater than 10 µM and 0.189.
With “JURLMK1_HAEMATOPOIETIC_AND_LYMPHOID_TISSUE”, in the test with BI-2493 [1], the “IC50 of cell viability” value is 3.42 µM. Also, in the test with BI-2493 [2], the “1 - AUC of viability dose-response curve” value was found to be 0.169.
The corresponding values for NCIH1876_LUNG are 3.89 µM and 0.0823.
The corresponding values for CORL23_LUNG are 5.82 µM and 0.0991.
KYSE510_OESOPHAGUS: the “IC50 of cell viability” value with BI-2493 [1] is 5.11 µM. Also, the “1 - AUC of viability dose-response curve” value in the test with BI-2493 [2] amounted to 0.22.
Taken in the same sequence, the figures for HEYA8_OVARY were 3.57 µM and 0.117.
The corresponding values for SF539_CENTRAL_NERVOUS_SYSTEM are 9.12 µM and 0.173.
Taken in the same sequence, the figures for VMRCRCW_KIDNEY were 5.59 µM and 0.0854.
Take SNU1544_LARGE_INTESTINE: the “IC50 of cell viability” value in the test with BI-2493 [1] worked out at 2.68 µM. For the same test system, the “1 - AUC of viability dose-response curve” value with BI-2493 [2] is 0.203.
The corresponding values for RERFGC1B_STOMACH are 3.33 µM and 0.262.
With KKU213_BILIARY_TRACT, the “IC50 of cell viability” value with BI-2493 [1] amounted to 4.97 µM. Besides, the “1 - AUC of viability dose-response curve” value in the test with BI-2493 [2] amounted to 0.12.
As to A2780_OVARY, in the test with BI-2493 [1], the “IC50 of cell viability” value stood at 5.15 µM. For the same test system, in the test with BI-2493 [2], the “1 - AUC of viability dose-response curve” value came to 0.103.
With MFE319_ENDOMETRIUM, the “IC50 of cell viability” value with BI-2493 [1] was found to be 9.02 µM. Besides, the “1 - AUC of viability dose-response curve” value with BI-2493 [2] is 0.0267.
As for HS939T_SKIN, the “IC50 of cell viability” value with BI-2493 [1] came to 8.03 µM. Further, the “1 - AUC of viability dose-response curve” value with BI-2493 [2] was determined as 0.0542.
The corresponding values for JVM3_HAEMATOPOIETIC_AND_LYMPHOID_TISSUE are 9.45 µM and 0.105.
Taken in the same sequence, the figures for UMUC10_URINARY_TRACT were 9.49 µM and 0.0119.
Taken in the same sequence, the figures for HSKTC_OVARY were 4.41 µM and 0.166.
In the case of HSC2_UPPER_AERODIGESTIVE_TRACT, the “IC50 of cell viability” value in the test with BI-2493 [1] was found to be 3.64 µM. The “1 - AUC of viability dose-response curve” value with BI-2493 [2] is 0.169.
With U178_CENTRAL_NERVOUS_SYSTEM, the “IC50 of cell viability” value in the test with BI-2493 [1] worked out at 7.8 µM. Further, the “1 - AUC of viability dose-response curve” value with BI-2493 [2] was determined as 0.139.
Turning to U2OS_BONE, the “IC50 of cell viability” value in the test with BI-2493 [1] is greater than 10 µM. The “1 - AUC of viability dose-response curve” value in the test with BI-2493 [2] was determined as 0.215.
On to K562_HAEMATOPOIETIC_AND_LYMPHOID_TISSUE, for which the “IC50 of cell viability” value in the test with BI-2493 [1] worked out at 7.18 µM. Moreover, in the test with BI-2493 [2], the “1 - AUC of viability dose-response curve” value was found to be 0.0609.
The corresponding values for WM983B_SKIN are 7.98 µM and 0.038.
For the test system DKMG_CENTRAL_NERVOUS_SYSTEM, the “IC50 of cell viability” value with BI-2493 [1] is 4.05 µM. In the test with BI-2493 [2], the “1 - AUC of viability dose-response curve” value came to 0.112.
Take NCIH841_LUNG: the “IC50 of cell viability” value with BI-2493 [1] is 6.98 µM. Further, the “1 - AUC of viability dose-response curve” value with BI-2493 [2] came out at 0.162.
T3M10_LUNG: the “IC50 of cell viability” value with BI-2493 [1] amounted to 5.96 µM. Besides, in the test with BI-2493 [2], the “1 - AUC of viability dose-response curve” value was 0.0884.
For MDAPCA2B_PROSTATE, the “IC50 of cell viability” value in the test with BI-2493 [1] was greater than 10 µM. In the test with BI-2493 [2], the “1 - AUC of viability dose-response curve” value worked out at 0.118.
The corresponding values for SW13_ADRENAL_CORTEX are 4.77 µM and 0.0973.
The corresponding values for “KMS28BM_HAEMATOPOIETIC_AND_LYMPHOID_TISSUE” are 9.91 µM and 0.00817.
Taken in the same sequence, the figures for “PECAPJ41CLONED2_UPPER_AERODIGESTIVE_TRACT” were 8.74 µM and 0.0352.
For 1618K_TESTIS, in the test with BI-2493 [1], the “IC50 of cell viability” value amounted to 2.47 µM. Moreover, in the test with BI-2493 [2], the “1 - AUC of viability dose-response curve” value amounted to 0.206.
Taken in the same sequence, the figures for COLO800_SKIN were 7.65 µM and 0.0454.
On to “KHM1B_HAEMATOPOIETIC_AND_LYMPHOID_TISSUE”, for which the “IC50 of cell viability” value with BI-2493 [1] amounted to 3.77 µM. For the same test system, the “1 - AUC of viability dose-response curve” value with BI-2493 [2] worked out at 0.106.
With SNU1105_CENTRAL_NERVOUS_SYSTEM, in the test with BI-2493 [1], the “IC50 of cell viability” value stood at 4.12 µM. Further, in the test with BI-2493 [2], the “1 - AUC of viability dose-response curve” value was found to be 0.157.
Taken in the same sequence, the figures for TGW_AUTONOMIC_GANGLIA were 4.67 µM and 0.123.
On to NCIH196_LUNG, for which, in the test with BI-2493 [1], the “IC50 of cell viability” value was found to be 6.4 µM. Moreover, in the test with BI-2493 [2], the “1 - AUC of viability dose-response curve” value was found to be 0.0864.
Taken in the same sequence, the figures for SKOV3_OVARY were 7.06 µM and 0.0812.
